Laboratory results reported in patent US20230002324A1, “NAPHTHOQUINONE DERIVATIVES FOR TREATMENT OF OXIDATIVE STRESS DISORDERS” (PTC THERAPEUTICS, INC., priority 2019, published 2023).
Read-outs that look alike come from different tables or passages of the source.

Tests used:
Assay type in all cases: cell-based
[1] = tested on: Q7 cells (ST HDH Q7/7; immortalized mouse striatal cells); assay: Q7 RSL3 challenge cell survival (rescue) assay; conditions: 18 h, read-out: Q7 RSL3 Survival EC50
Excerpt: (§1) In neuronal cells excess extracellular glutamate inhibits the cystine/glutamate antiporter leading to intracellular cysteine depletion, GSH depletion, reactive oxygen species (ROS) production and cell death, a phenomenon termed oxidative glutamate toxicity, oxytosis, or ferroptosis. […] Q7 cells (ST HDH Q7/7; immortalized mouse striatal cells) challenged with cystine-free media or the selective, irreversible GPX4 inhibitor, methyl (1S,3R)-2-(2-chloroacetyl)-1-(4-(methoxycarbonyl)phenyl)-2,3,4,9-tetrahydro-1H-pyrido[3,4-b]indole-3-carboxylate (hereafter referred to as RSL3), recapitulate this phenotype, as do normal human fibroblasts (NHF) challenged with RSL3. An initial screen was performed to identify compounds effective in rescuing Q7 and/or NHF cells from death resulting from cystine deprivation or RSL3 challenge. This method is further described in Yonezawa et al., J. Neurochem 67, 566-573 (1996), Li et al., J Neurosci., 23, 5816-5826 (2003), Yang and Stockwell, Chem Biol., 15: 234-45 (2008), and Yang et al., Cell 156, 317-331 (2014). See also Hinman A, Holst C R, Latham J C, et al. Vitamin E hydroquinone is an endogenous regulator of ferroptosis via redox control of 15-lipoxygenase. PLoS One. 2018; 13(8):e0201369. Published 2018 Aug. 15. doi:10.1371/journal.pone.0201369; and Kahn-Kirby A H, Amagata A, Maeder C I, et al. Targeting ferroptosis: A novel therapeutic strategy for the treatment of mitochondrial disease-related epilepsy. PLoS One. 2019; 14(3):e0214250. Published 2019 Mar. 28. doi:10.1371/journal.pone.0214250.
(§2) DMEM (Catalog no. 11995-040), DMEM without Cystine (Catalog no. 21013-024), DMEM without Glucose (Catalog A1443001), PBS (Phosphate buffered saline), Penicillin-streptomycin mix, L-Glutamine, Glucose, Phenol Red, and Pyruvate were purchased from ThermoFisher Scientific (Gibco). Fetal Bovine Serum was obtained from Mediatech, Inc., or Sigma Aldrich. Mouse striatum derived ST HDH Q7/7 (Q7) and normal human skin fibroblast (NHF, product number GM21811) cells were obtained from the Coriell Institute. Methionine and Vitamin K2 were purchased from Sigma Aldrich. RSL3 was synthesized as previously described (see e.g. US Patent Publication US2010/0081654). Cell Titer Glo 2.0 was purchased from Promega. Q7 cell culture medium (Q7 growth medium) was made by combining 50 mL Fetal Bovine Serum, 100 U/mL penicillin, and 100 microgram/mL streptomycin; DMEM was added to make the volume up to 500 mL. Assay medium for the Cystine Deprivation assay was prepared by combining 50 mL Fetal Bovine Serum, 100 U/mL penicillin, 100 microgram/mL streptomycin, 4 mM L-Glutamine, 1 mM Pyruvate and 30 mg/L Methionine; DMEM without Cystine was added to make the volume up to 500 mL. NHF cell culture medium (NHF growth medium) was made by combining 50 mL Fetal Bovine Serum, 100 U/mL penicillin, 100 microgram/mL streptomycin, 2.8 mL 20% Glucose solution (final concentration 6 mM), L-glutamine (final concentration 2 mM), phenol red (final concentration 15 mg/L); DMEM without Glucose was added to make the volume up to 500 mL. Assay medium for the RSL3 challenge assay was identical to Growth medium. While not in use during the course of the experiments, these solutions were stored at 4° C. The cells were grown in 150-cm^2 tissue culture-treated flasks. Every third or fourth day, the cells were sub-cultured by trypsinization and re-seeded at a cell density of 600,000 (Q7) or 300,000 (NHF) cells per flask.
(§3) Q7 or NHF cells were cultured routinely as described herein. For 384-well cell survival assays, cells were seeded in clear bottom, black wall 384-well tissue culture-treated polystyrene plates by re-suspending a cell suspension at a density of 50,000 cells/mL in growth medium, then dispensing 60 microliters of cell suspension per well using either an electronic multichannel pipette or a Multidrop™ Combi Reagent Dispenser (ThermoFisher Scientific), corresponding to 3,000 cells/well. […]

[2] = tested on: Q7 cells (ST HDH Q7/7; immortalized mouse striatal cells); assay: Q7 Cystine Deprivation cell survival (rescue) assay; conditions: 18 h, read-out: Q7 Cystine Deprivation Survival EC50
How it was run: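 Cells were seeded at 3,000/well and allowed to attach for 5 h at 33 °C. Wells were then washed twice with PBS and switched to cystine-free DMEM containing FBS, 4 mM L-glutamine, 1 mM pyruvate and 30 mg/L methionine to induce ferroptotic death. Compounds were scored for survival rescue.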

[3] = tested on: normal human fibroblasts (NHF, GM21811); assay: NHF GM21811 RSL3 challenge cell survival (rescue) assay; conditions: Fibroblast, 48 h, read-out: NHF GM21811 RSL3 Survival EC50
Excerpt: as §1, §2, §3

[4] = Q7 cells, RSL3 2 micromolar, Cell Titer Glo
[5] = Q7 cells, cystine-free medium, Cell Titer Glo, 50% relative viability vs Vitamin K2 (1 micromolar)
[6] = NHF cells, RSL3 2 micromolar, Cell Titer Glo

Q: How did the EC50 [1, 4] turn out when CC1=C(Cc2ccc(F)cn2)C(=O)c2ccccc2C1=O [Example 6, 2-((5-fluoropyridin-2-yl)methyl)-3-methylnaphthalene-1,4-dione] was run?
A: Its EC50 is less than 50 nM.

Q: And the EC50 [2, 5]?
A: Its EC50 is less than 50 nM.

Q: What about the EC50 [3, 6] of the same compound?
A: Its EC50 is less than 50 nM.

Q: How did the EC50 [1, 4] turn out when CC1=C(Cc2ccc(C(F)F)cn2)C(=O)c2ccccc2C1=O [Example 20, 2-((5-(difluoromethyl)pyridin-2-yl)methyl)-3-methylnaphthalene-1,4-dione] was run?
A: The EC50 was less than 50 nM.

Q: What about the EC50 [2, 5] of the same compound?
A: The EC50 was less than 50 nM.

Q: What about the EC50 [3, 6] of the same compound?
A: The EC50 was less than 50 nM.

Q: [2H]C([2H])(C1=C(C)C(=O)c2ccccc2C1=O)c1ccc(C(F)(F)F)cn1 [Example 21, 2-methyl-3-((5-(trifluoromethyl)pyridin-2-yl)methyl-d2)naphthalene-1,4-dione] was tested. Which EC50 [1, 4] did it give?
A: The EC50 was less than 50 nM.

Q: And the EC50 [3, 6]?
A: Its EC50 is less than 50 nM.

Q: Which EC50 [1, 4] does the source give for CC1(CCC2=C(Cc3ccc(C(F)(F)F)cn3)C(=O)c3ccccc3C2=O)COC1 [Example 32, 2-(2-(3-methyloxetan-3-yl)ethyl)-3-((5-(trifluoromethyl)pyridin-2-yl)methyl)naphthalene-1,4-dione] here?
A: The EC50 was less than 50 nM.

Q: And the EC50 [2, 5]?
A: The EC50 was less than 50 nM.

Q: And the EC50 [3, 6]?
A: Its EC50 is 50 to 250 nM.

Q: Which results are given for O=C1C(CCC2COC2)=C(Cc2ccc(C(F)(F)F)cn2)C(=O)c2ccccc21 [Example 33, 2-(2-(oxetan-3-yl)ethyl)-3-((5-(trifluoromethyl)pyridin-2-yl)methyl)naphthalene-1,4-dione]?
A: EC50 [1, 4]: < 50 nM; EC50 [2, 5]: < 50 nM; EC50 [3, 6]: 50 to 250 nM

Q: For O=C1C(Cc2ccc(F)cn2)=C(C2CC2)C(=O)c2ccccc21 [Example 35, 2-cyclopropyl-3-((5-fluoropyridin-2-yl)methyl)naphthalene-1,4-dione], which EC50 [1, 4] is on record?
A: Its EC50 is less than 50 nM.

Q: What about the EC50 [2, 5] of the same compound?
A: The EC50 was less than 50 nM.

Q: And the EC50 [3, 6]?
A: The EC50 was less than 50 nM.

Q: For CC1=C(Cc2ccc(F)cn2)C(=O)c2ccc(F)cc2C1=O [Example 48, 6-fluoro-2-((5-fluoropyridin-2-yl)methyl)-3-methylnaphthalene-1,4-dione], which EC50 [1, 4] is on record?
A: Its EC50 is less than 50 nM.

Q: And the EC50 [2, 5]?
A: Its EC50 is less than 50 nM.

Q: And the EC50 [3, 6]?
A: Its EC50 is less than 50 nM.

Q: With CC1=C(Cc2ccc(C(F)(F)F)cn2)C(=O)c2cc(C(F)(F)F)ccc2C1=O [Example 53, 2-methyl-6-(trifluoromethyl)-3-((5-(trifluoromethyl)pyridin-2-yl)methyl)naphthalene-1,4-dione] as the compound, how does the EC50 [1, 4] read?
A: The EC50 was 50 to 250 nM.

Q: What about the EC50 [2, 5] of the same compound?
A: The EC50 was 50 to 250 nM.

Q: [2H]C([2H])([2H])C1=C(Cc2ccc(C(F)(F)F)cn2)C(=O)c2ccccc2C1=O [Example 54, 2-(methyl-d3)-3-((5-(trifluoromethyl)pyridin-2-yl)methyl)naphthalene-1,4-dione] was tested. Which EC50 [1, 4] did it give?
A: The EC50 was less than 50 nM.

Q: What about the EC50 [2, 5] of the same compound?
A: Its EC50 is less than 50 nM.

Q: Which EC50 [1] does the source give for CCC1=C(Cc2ccc(C(F)(F)F)cn2)C(=O)c2cc(F)cc(F)c2C1=O [Example 56, 3-ethyl-5,7-difluoro-2-((5-(trifluoromethyl)pyridin-2-yl)methyl)naphthalene-1,4-dione] here?
A: Its EC50 is less than 50 nM.

Q: And the EC50 [3]?
A: Its EC50 is less than 50 nM.

Q: Which results are given for CC1=C(Cc2ccc(C(F)(F)F)cn2)C(=O)c2cccc(Cl)c2C1=O [Example 60, 5-chloro-3-methyl-2-[[5-(trifluoromethyl)-2-pyridyl]methyl]naphthalene-1,4-dione]?
A: EC50 [1, 4]: < 50 nM; EC50 [3, 6]: < 50 nM

Q: What does the source list for [2H]C([2H])([2H])C1=C(Cc2ccc(C(F)(F)F)c(C#N)n2)C(=O)c2cc(F)cc(F)c2C1=O [Example 71, 6-((5,7-difluoro-3-(methyl-d3)-1,4-dioxo-1,4-dihydronaphthalen-2-yl)methyl)-3-(trifluoromethyl)picolinonitrile]?
A: EC50 [1, 4]: < 50 nM; EC50 [3, 6]: < 50 nM

Q: Which EC50 [1, 4] does the source give for [2H]C([2H])([2H])C1=C(Cc2ccc(C(F)(F)F)c(C#N)n2)C(=O)c2c(F)cc(F)cc2C1=O [Example 72, 6-((6,8-difluoro-3-(methyl-d3)-1,4-dioxo-1,4-dihydronaphthalen-2-yl)methyl)-3-(trifluoromethyl)picolinonitrile] here?
A: The EC50 was less than 50 nM.

Q: What about the EC50 [3, 6] of the same compound?
A: The EC50 was less than 50 nM.

Q: Which EC50 [1, 4] does the source give for [2H]C([2H])([2H])C1=C(Cc2ccc(C(F)(F)F)c(C#N)n2)C(=O)c2ccc(F)cc2C1=O [Example 73, 6-((6-fluoro-3-(methyl-d3)-1,4-dioxo-1,4-dihydronaphthalen-2-yl)methyl)-3-(trifluoromethyl)picolinonitrile] here?
A: Its EC50 is less than 50 nM.

Q: And the EC50 [3, 6]?
A: The EC50 was less than 50 nM.

Q: How did the EC50 [1, 4] turn out when CC1=C(Cc2ccc(C(F)(F)F)c(C#N)n2)C(=O)c2cc(F)cc(F)c2C1=O [Example 74, 6-((5,7-difluoro-3-methyl-1,4-dioxo-1,4-dihydronaphthalen-2-yl)methyl)-3-(trifluoromethyl)picolinonitrile] was run?
A: Its EC50 is 50 to 250 nM.

Q: What about the EC50 [3, 6] of the same compound?
A: Its EC50 is less than 50 nM.

Q: CC1=C(Cc2ccc(C(F)(F)F)c(C#N)n2)C(=O)c2c(F)cc(F)cc2C1=O [Example 75, 6-((6,8-difluoro-3-methyl-1,4-dioxo-1,4-dihydronaphthalen-2-yl)methyl)-3-(trifluoromethyl)picolinonitrile] was tested. Which EC50 [1, 4] did it give?
A: The EC50 was less than 50 nM.

Q: What about the EC50 [3, 6] of the same compound?
A: The EC50 was less than 50 nM.

Q: With [2H]C([2H])([2H])C1=C(Cc2ccc(C(F)(F)F)c(C#N)n2)C(=O)c2c(F)ccc(F)c2C1=O [Example 76, 6-((5,8-difluoro-3-(methyl-d3)-1,4-dioxo-1,4-dihydronaphthalen-2-yl)methyl)-3-(trifluoromethyl)picolinonitrile] as the compound, how does the EC50 [1, 4] read?
A: The EC50 was less than 50 nM.

Q: What about the EC50 [3, 6] of the same compound?
A: Its EC50 is less than 50 nM.

Q: Which EC50 [1, 4] does the source give for CC1=C(Cc2ccc(C(F)(F)F)c(C#N)n2)C(=O)c2ccccc2C1=O [Example 77, 6-((3-methyl-1,4-dioxo-1,4-dihydronaphthalen-2-yl)methyl)-3-(trifluoromethyl)picolinonitrile] here?
A: Its EC50 is less than 50 nM.

Q: And the EC50 [3, 6]?
A: The EC50 was less than 50 nM.

Q: Which EC50 [1, 4] does the source give for CCCC1=C(Cc2ccc(C(F)(F)F)c(C#N)n2)C(=O)c2cc(F)cc(F)c2C1=O [Example 82, 6-((5,7-difluoro-1,4-dioxo-3-propyl-1,4-dihydronaphthalen-2-yl)methyl)-3-(trifluoromethyl)picolinonitrile] here?
A: The EC50 was less than 50 nM.

Q: And the EC50 [3, 6]?
A: Its EC50 is less than 50 nM.

Q: What does the source list for O=C1C(Cc2ccc(F)cn2)=C(C2CC2)C(=O)c2c(F)ccc(F)c21 [Example 87, 2-cyclopropyl-5,8-difluoro-3-((5-fluoropyridin-2-yl)methyl)naphthalene-1,4-dione]?
A: EC50 [1, 4]: < 50 nM; EC50 [3, 6]: < 50 nM

Q: How did the EC50 [1, 4] turn out when CCC1=C(Cc2ccc(F)cn2)C(=O)c2c(F)ccc(F)c2C1=O [Example 88, 2-ethyl-5,8-difluoro-3-((5-fluoropyridin-2-yl)methyl)naphthalene-1,4-dione] was run?
A: Its EC50 is less than 50 nM.

Q: What about the EC50 [3, 6] of the same compound?
A: The EC50 was less than 50 nM.

Q: Which results are given for CCCC1=C(Cc2ccc(C(F)(F)F)c(C#N)n2)C(=O)c2ccccc2C1=O [Example 114, 6-((1,4-dioxo-3-propyl-1,4-dihydronaphthalen-2-yl)methyl)-3-(trifluoromethyl)picolinonitrile]?
A: EC50 [1, 4]: < 50 nM; EC50 [2, 5]: < 50 nM

Q: For Cc1c(Cc2ccc(C(F)(F)F)cn2)c(O)c2ccccc2c1O [Example 131, 2-methyl-3-((5-(trifluoromethyl)pyridin-2-yl)methyl)naphthalene-1,4-diol], which EC50 [1] is on record?
A: The EC50 was less than 50 nM.

Q: And the EC50 [2]?
A: The EC50 was less than 50 nM.
